Our source for the IC50 values is patent US20210198277A1, “AMINE-SUBSTITUTED ARYL OR HETEROARYL COMPOUNDS” (Epizyme, Inc., priority 2016, published 2021).

Structures are written as SMILES.

The target in the assay is T1, EHMT2 (Homo sapiens, UniProt Q96KQ7).
T1 construct: host or cells: MDA-MB-231
T1 sequence (Q96KQ7 1-1210): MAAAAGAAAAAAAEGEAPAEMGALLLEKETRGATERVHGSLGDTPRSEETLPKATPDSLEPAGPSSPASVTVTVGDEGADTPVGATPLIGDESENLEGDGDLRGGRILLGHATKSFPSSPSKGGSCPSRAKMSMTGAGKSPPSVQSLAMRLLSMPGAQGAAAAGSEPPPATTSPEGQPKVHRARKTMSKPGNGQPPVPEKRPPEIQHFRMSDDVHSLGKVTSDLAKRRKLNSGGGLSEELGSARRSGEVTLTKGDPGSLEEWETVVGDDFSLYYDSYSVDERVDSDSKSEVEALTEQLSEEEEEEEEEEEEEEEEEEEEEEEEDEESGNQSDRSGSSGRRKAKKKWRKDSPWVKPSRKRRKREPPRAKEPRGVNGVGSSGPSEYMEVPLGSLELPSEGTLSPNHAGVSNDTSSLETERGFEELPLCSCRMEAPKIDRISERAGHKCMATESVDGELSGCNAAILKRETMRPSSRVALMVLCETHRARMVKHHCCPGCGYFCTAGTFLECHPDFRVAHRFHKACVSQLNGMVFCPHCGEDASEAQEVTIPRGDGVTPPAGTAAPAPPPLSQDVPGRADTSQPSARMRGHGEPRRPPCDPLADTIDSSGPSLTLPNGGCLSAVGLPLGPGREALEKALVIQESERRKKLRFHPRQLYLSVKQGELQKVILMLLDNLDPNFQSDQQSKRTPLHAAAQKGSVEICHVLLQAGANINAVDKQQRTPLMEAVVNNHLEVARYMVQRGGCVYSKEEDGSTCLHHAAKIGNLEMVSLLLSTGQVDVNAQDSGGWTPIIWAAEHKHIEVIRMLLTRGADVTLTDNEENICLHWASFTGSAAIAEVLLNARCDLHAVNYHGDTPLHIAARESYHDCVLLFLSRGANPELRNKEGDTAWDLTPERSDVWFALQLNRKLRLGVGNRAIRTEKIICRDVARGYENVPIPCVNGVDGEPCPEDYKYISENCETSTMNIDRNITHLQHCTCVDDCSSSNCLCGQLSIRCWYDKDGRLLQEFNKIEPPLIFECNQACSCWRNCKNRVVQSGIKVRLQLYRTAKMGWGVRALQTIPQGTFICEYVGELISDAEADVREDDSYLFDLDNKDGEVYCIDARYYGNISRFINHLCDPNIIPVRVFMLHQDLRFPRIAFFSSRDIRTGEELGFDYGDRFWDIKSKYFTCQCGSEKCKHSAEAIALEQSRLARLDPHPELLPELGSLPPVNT
The experiment in a line: MDA-MB-231 H3K9me2 in-cell Western assay (EHMT2 ICW). The note with it: Table II; MDA-MB-231 H3K9me2 in-cell Western; read-out: EHMT2 ICW (IC50 μM). The format is cell-based. The essentials: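 IC50 values came from a variable-slope four-parameter fit on triplicate wells, using % inhibition from the 800/700 nm infrared signal ratio (anti-H3K9me2 versus DRAQ5 DNA stain). Before fixation and immunostaining, MDA-MB-231 cells, 3,000 per well, were exposed to compound for 48 h at 37 °C.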
Usually IC50 stands for the concentration at which inhibition is half-maximal. For `COc1ccc(Nc2nccc(NCCNC(C)=O)n2)cc1OCCCN1CCCC1` [Compound 38], the half-maximal inhibitory concentration (IC50) lay within 0.1 to 1 µM.

Take `COCCCNc1ccnc(Nc2ccc(OC)c(OCCCN3CCCC3)c2)n1` [Compound 22]: the IC50 lay in the range of 0.1 to 1 µM.

On to `COc1ccc(Nc2cccc3ncnn23)cc1OCCCN1CCCC1` [Compound 220], for which the IC50 is greater than 10 µM.

On to `CNc1ccnc(Nc2ccc(OC)c(OCCCN3CCCC3)c2)c1` [Compound 209, N^2-(4-methoxy-3-(3-(pyrrolidin-1-yl)propoxy)phenyl)-N^4-methylpyridine-2,4-diamine], for which the IC50 was in the range of 1 to 10 µM.

Turning to `CNc1nc(Nc2ccc(OC)c(OCCCN3CCCC3)c2)nc(C)c1F` [Compound 236], the IC50 was 0.1 to 1 µM.

Take `COc1ccc(Nc2ccc3nn(C)cc3c2)cc1OCCCN1CCCC1` [Compound 221]: the half-maximal inhibitory concentration (IC50) was greater than 10 µM.

`COc1ccc(Nc2nccc(NCC3CCOCC3)n2)cc1NCCCN1CCCC1` [Compound 226]: the IC50 lay in the range of 1 to 10 µM.

Take `CNc1ccnc(Nc2ccc3c(c2)N(C(=O)CCN(C)C)CC3)n1` [Compound 239]: the 50% inhibitory concentration (IC50) is greater than 10 µM.

As for `CNc1ccnc(Nc2ccc(OC)c(OCCCN3CCOCC3)c2)n1` [Compound 210], the IC50 was in the range of 1 to 10 µM.

As to `COc1ccc(Nc2nccc(NC3CCCCC3)n2)cc1OCCCN1CCCC1` [Compound 50], the concentration for half-maximal inhibition (IC50) is 1 to 10 µM.

As for `COc1ccc(Nc2cccc(NC3CCC3)n2)cc1OCCCN1CCCC1` [Compound 35], the IC50 lay in the range of 0.1 to 1 µM.

On to `COc1ccc(Nc2nccc(NCC3CCOCC3)n2)cc1OC1CC2(C1)CN(C)C2` [Compound 243], for which the IC50 is greater than 10 µM.

Turning to `CNc1cnnc(Nc2ccc(OC)c(OCCCN3CCCC3)c2)c1` [Compound 246], the IC50 is greater than 10 µM.

Regarding `CNc1ccnc(Nc2ccc(OC)c(OCCN3CCOCC3)c2)n1` [Compound 237], the IC50 was greater than 10 µM.

Take `CNc1ccnc(Nc2ccc(OC)c(OCCCN3CC[C@@H](F)C3)c2)n1` [Compound 229]: the 50% inhibitory concentration (IC50) was in the range of 1 to 10 µM.

Turning to `CNc1cc(C)nc(Nc2ccc(F)c(OCCCN3CCCC3)c2)n1` [Compound 232], the IC50 was greater than 10 µM.

With `COc1ccc(Nc2nccc(NCCOc3ccccc3)n2)cc1OCCCN1CCCC1` [Compound 40], the IC50 fell in the range of 1 to 10 µM.

In the case of `COc1ccc(Nc2cccc3cn(C)nc23)cc1OCCCN1CCCC1` [Compound 222], the IC50 was greater than 10 µM.

Consider `COc1ccc(Nc2ccnc3[nH]ccc23)cc1OCCCN1CCCC1` [Compound 250], for which the half-maximal inhibitory concentration (IC50) was greater than 10 µM.

Consider `COc1ccc(Nc2nccc(NCC3CCN(c4ccccc4)CC3)n2)cc1OCCCN1CCCC1` [Compound 33], for which the IC50 fell in the range of 0.1 to 1 µM.

As to `COc1ccc(Nc2nccc(NCc3cc[nH]n3)n2)cc1OCCCN1CCCC1` [Compound 46], the IC50 fell in the range of 1 to 10 µM.

Take `COCCNc1ccnc(Nc2ccc(OC)c(OCCCN3CCCC3)c2)n1` [Compound 27]: the IC50 lay within 0.1 to 1 µM.

In the case of `COc1ccc(Nc2nccc(NCC3CCNCC3)n2)cc1OCCCN1CCOCC1` [Compound 16, N^2-(4-methoxy-3-(3-morpholinopropoxy)phenyl)-N^4-(piperidin-4-ylmethyl)pyrimidine-2,4-diamine], the IC50 was greater than 10 µM.

For `COc1ccc(Nc2nccc(NCC3CCCC3)n2)cc1OCCCN1CCCC1` [Compound 34], the concentration for half-maximal inhibition (IC50) fell in the range of 0.1 to 1 µM.

On to `COc1ccc(Nc2nccc(Nc3cccc(F)c3)n2)cc1OCCCN1CCCC1` [Compound 225], for which the IC50 was in the range of 1 to 10 µM.

On to `CNc1cc(Nc2cc(OCCCN3CCCC3)c(OC)cn2)ccn1` [Compound 248], for which the half-maximal inhibitory concentration (IC50) fell in the range of 0.1 to 1 µM.

On to `COc1ccc(Nc2nccc(NCc3cccnc3)n2)cc1OCCCN1CCCC1` [Compound 25], for which the IC50 fell in the range of 0.1 to 1 µM.

`COc1ccc(Nc2cnnc(NCC3CCN(C(C)=O)CC3)c2)cc1OCCCN1CCCC1` [Compound 242]: the half-maximal inhibitory concentration (IC50) is greater than 10 µM.

`COc1ccc(Nc2nccc(NCC3CCN(C(C)=O)CC3)n2)cc1OCCCN1CCCC1` [Compound 47, 1-(4-(((2-((4-methoxy-3-(3-(pyrrolidin-1-yl)propoxy)phenyl)amino)pyrimidin-4-yl)amino)methyl)piperidin-1-yl)ethan-1-one]: the IC50 was in the range of 1 to 10 µM.
